The values that follow come from PMC10989005, “Inter-phylum circulation of a beta-lactamase-encoding gene: a rare but observable event” (Antimicrobial Agents and Chemotherapy, 2024).

A word on the IC50: it is the concentration that gives 50% inhibition. Low values mean higher potency, high ones lower potency.

Assay type in all cases: biochemical, Escherichia coli
Experiment [1] has as its system T1, MUN-1 beta-lactamase.
T1 construct: gene blaMUN-1; full gene cloned in pTOPO-kanR, expressed in E. coli TOP10, purified by ion exchange; no tag mentioned
Kind of experiment: hydrolysis kinetics, purified beta-lactamase. As to conditions: details in supplement; read-out: Kinetic measurement / Km. An excerpt: hydrolysis kinetics, purified beta-lactamase on MUN-1 beta-lactamase

Experiment [2] deals with T1, MUN-1 beta-lactamase. The experiment in a line: kinetic measurement, purified beta-lactamase. As to conditions: details in supplement. The text has this: kinetic measurement, purified beta-lactamase on MUN-1 beta-lactamase
Experiment [3] addresses T1, MUN-1 beta-lactamase. The experiment in a line: beta-lactamase inhibition. As to conditions: covalent (known mechanism); reporter substrate and buffer only in supplement.
The mark [4] stands for this setting: covalent (acylation without deacylation suggested).

Structures are written as SMILES.

Regarding `CC1(C)S[C@@H]2[C@H](NC(=O)[C@H](N)c3ccccc3)C(=O)N2[C@H]1C(=O)O` [Ampicillin], the Km with MUN-1 beta-lactamase [1] amounted to 280 µM.

Turning to `C[C@H]1[C@H](NC(=O)/C(=N\OC(C)(C)C(=O)O)c2csc(N)n2)C(=O)N1S(=O)(=O)O` [Aztreonam], the Km in the experiment on MUN-1 beta-lactamase [1] stood at 45 µM.

Regarding `CC(C)(O/N=C(\C(=O)N[C@@H]1C(=O)N2C(C(=O)[O-])=C(C[n+]3ccccc3)CS[C@H]12)c1csc(N)n1)C(=O)O` [Ceftazidime], the Ki on MUN-1 beta-lactamase [2] (setting [4]) amounted to 580 nM.

Take `CC(=O)OCC1=C(C(=O)O)N2C(=O)[C@@H](NC(=O)Cc3cccs3)[C@H]2SC1` [Cephalothin]: the Km with MUN-1 beta-lactamase [1] worked out at 15 µM.

Take `C[C@@H](O)[C@H]1C(=O)N2C(C(=O)O)=C(S[C@@H]3CN[C@H](C(=O)Nc4cccc(C(=O)O)c4)C3)[C@H](C)[C@H]12` [Ertapenem]: the Ki on MUN-1 beta-lactamase [2] was 17 nM.

Consider `C[C@@H](O)[C@H]1C(=O)N2C(C(=O)O)=C(SCCN=CN)C[C@H]12` [Imipenem], for which the Ki on MUN-1 beta-lactamase [2] is 1.3 nM.

At MUN-1 beta-lactamase [2], `C[C@@H](O)[C@H]1C(=O)N2C(C(=O)O)=C(S[C@@H]3CN[C@H](C(=O)N(C)C)C3)[C@H](C)[C@H]12` [Meropenem] returned a Ki of 19 nM.

For `CC1(C)S[C@@H]2[C@H](NC(=O)Cc3ccccc3)C(=O)N2[C@H]1C(=O)O` [Penicillin G], in the experiment on MUN-1 beta-lactamase [1], the Km amounted to 95 µM.

`CCN1CCN(C(=O)N[C@@H](C(=O)N[C@@H]2C(=O)N3[C@@H]2SC(C)(C)[C@@H]3C(=O)O)c2ccccc2)C(=O)C1=O` [Piperacillin] showed a Ki on MUN-1 beta-lactamase [2] (setting [4]) of 7.2 nM.

For `CC1(C)S[C@@H]2[C@H](NC(=O)[C@H](C(=O)O)c3ccsc3)C(=O)N2[C@H]1C(=O)O` [Ticarcillin], at MUN-1 beta-lactamase [2], the Ki came to 3.6 nM.

As for `NC(=O)[C@@H]1CC[C@@H]2CN1C(=O)N2OS(=O)(=O)O` [avibactam], the IC50 at MUN-1 beta-lactamase [3] was 3.8 nM.

As to `O=C(O)[C@H]1/C(=C/CO)O[C@@H]2CC(=O)N21` [clavulanic acid], 0.32 nM corresponded to half-maximal inhibition at MUN-1 beta-lactamase [3] (IC50).

With `C[C@]1(Cn2ccnn2)[C@H](C(=O)O)N2C(=O)C[C@H]2S1(=O)=O` [tazobactam], at MUN-1 beta-lactamase [3], the IC50 was 0.8 nM.
